Measured values taken from the NIST ThermoML archive (doi:10.1016/j.tca.2004.08.001).
± gives the expanded uncertainty stated by the source.

Tests used:
[1] = 101.33 kPa, Liquid; for speed of sound: Linear variable-path acoustic interferometer
[2] = refractive index (Na D-line) (dimensionless); settings: 101.33 kPa, Liquid, Standard Abbe refractometry
[3] = xn = mol fraction of the nth substance listed; settings: 303.15 K, 101.3 kPa, Liquid; for speed of sound: Linear variable-path acoustic interferometer
[4] = refractive index (Na D-line) (dimensionless); xn = mol fraction of the nth substance listed; settings: 303.15 K, 101.3 kPa, Liquid, Standard Abbe refractometry

## CCCCOC(C)=O [butyl ethanoate]
[1]; 303.15 K
  mass density: 870.8 ± 0.44 kg/m3
  viscosity: 0.6453 ± 0.0089 mPa·s
  speed of sound: 1172 ± 2 m/s
[2]; 303.15 K
  refractive index: 1.3896 ± 0.0007

## CCCCCOC(C)=O [pentyl ethanoate]
[1]; 303.15 K
  mass density: 867.2 ± 0.44 kg/m3
  viscosity: 0.7573 ± 0.0099 mPa·s
  speed of sound: 1197 ± 2 m/s
[2]; 303.15 K
  refractive index: 1.3961 ± 0.0007

## ClC(Cl)(Cl)Cl [tetrachloromethane] + C1CCOC1
[3]; x2 = 0.1068
  speed of sound: 932 ± 2 m/s
  mass density: 1513.72 ± 0.95 kg/m3
  viscosity: 0.8152 ± 0.011 mPa·s
[3]; x2 = 0.2017
  speed of sound: 955 ± 2 m/s
  mass density: 1457.18 ± 0.86 kg/m3
  viscosity: 0.788 ± 0.01 mPa·s
[3]; x2 = 0.3004
  speed of sound: 982 ± 2 m/s
  mass density: 1395.97 ± 0.77 kg/m3
  viscosity: 0.758 ± 0.01 mPa·s
[3]; x2 = 0.396
  speed of sound: 1008 ± 2 m/s
  mass density: 1334.07 ± 0.67 kg/m3
  viscosity: 0.721 ± 0.0096 mPa·s
[3]; x2 = 0.503
  speed of sound: 1042 ± 2 m/s
  mass density: 1261.58 ± 0.57 kg/m3
  viscosity: 0.6782 ± 0.0092 mPa·s
[3]; x2 = 0.6
  speed of sound: 1074 ± 2 m/s
  mass density: 1192.83 ± 0.47 kg/m3
  viscosity: 0.6359 ± 0.0088 mPa·s
[3]; x2 = 0.6923
  speed of sound: 1109 ± 2 m/s
  mass density: 1124.71 ± 0.37 kg/m3
  viscosity: 0.5916 ± 0.0084 mPa·s
[3]; x2 = 0.7949
  speed of sound: 1152 ± 2 m/s
  mass density: 1045.62 ± 0.27 kg/m3
  viscosity: 0.5453 ± 0.008 mPa·s
[3]; x2 = 0.8889
  speed of sound: 1196 ± 2 m/s
  mass density: 969.98 ± 0.26 kg/m3
  viscosity: 0.4962 ± 0.0076 mPa·s
[4]; x2 = 0.1068
  refractive index: 1.4519 ± 0.0008
[4]; x2 = 0.2017
  refractive index: 1.4486 ± 0.0008
[4]; x2 = 0.3004
  refractive index: 1.4451 ± 0.0008
[4]; x2 = 0.396
  refractive index: 1.4409 ± 0.0008
[4]; x2 = 0.503
  refractive index: 1.4357 ± 0.0008
[4]; x2 = 0.6
  refractive index: 1.4304 ± 0.0008
[4]; x2 = 0.6923
  refractive index: 1.4247 ± 0.0008
[4]; x2 = 0.7949
  refractive index: 1.4182 ± 0.0008
[4]; x2 = 0.8889
  refractive index: 1.4116 ± 0.0008

## CCCCCCBr [1-bromohexane]
[1]; 298.15 K
  mass density: 1169.62 ± 0.51 kg/m3
[1]; 303.15 K
  mass density: 1162.67 ± 0.34 kg/m3
  viscosity: 0.903 ± 0.012 mPa·s
  speed of sound: 1075 ± 2 m/s
[2]; 298.15 K
  refractive index: 1.4464 ± 0.0007
[2]; 303.15 K
  refractive index: 1.4441 ± 0.0007

## CCCCCOC(C)=O [pentyl ethanoate] + C1CCOC1
[3]; x2 = 0.1067
  speed of sound: 1198 ± 2 m/s
  mass density: 867.69 ± 0.44 kg/m3
  viscosity: 0.7426 ± 0.0098 mPa·s
[3]; x2 = 0.298
  speed of sound: 1203 ± 2 m/s
  mass density: 868.75 ± 0.44 kg/m3
  viscosity: 0.7005 ± 0.0094 mPa·s
[3]; x2 = 0.4997
  speed of sound: 1212 ± 2 m/s
  mass density: 870.25 ± 0.43 kg/m3
  viscosity: 0.6373 ± 0.0088 mPa·s
[3]; x2 = 0.6997
  speed of sound: 1224 ± 2 m/s
  mass density: 872.25 ± 0.43 kg/m3
  viscosity: 0.5686 ± 0.0082 mPa·s
[3]; x2 = 0.9027
  speed of sound: 1242 ± 2 m/s
  mass density: 875 ± 0.42 kg/m3
  viscosity: 0.4829 ± 0.0074 mPa·s
[4]; x2 = 0.1067
  refractive index: 1.3967 ± 0.0008
[4]; x2 = 0.298
  refractive index: 1.3978 ± 0.0008
[4]; x2 = 0.4997
  refractive index: 1.3992 ± 0.0008
[4]; x2 = 0.6997
  refractive index: 1.4005 ± 0.0008
[4]; x2 = 0.9027
  refractive index: 1.4021 ± 0.0008

## CCCCCCCl [1-chlorohexane] + C1CCOC1
[3]; x2 = 0.1039
  speed of sound: 1195 ± 2 m/s
  mass density: 869.11 ± 0.44 kg/m3
  viscosity: 0.6407 ± 0.0088 mPa·s
[3]; x2 = 0.305
  speed of sound: 1216 ± 2 m/s
  mass density: 870.03 ± 0.43 kg/m3
  viscosity: 0.6046 ± 0.0085 mPa·s
[3]; x2 = 0.5025
  speed of sound: 1233 ± 2 m/s
  mass density: 871.36 ± 0.43 kg/m3
  viscosity: 0.5698 ± 0.0082 mPa·s
[3]; x2 = 0.7336
  speed of sound: 1247 ± 2 m/s
  mass density: 873.79 ± 0.43 kg/m3
  viscosity: 0.5114 ± 0.0077 mPa·s
[3]; x2 = 0.9013
  speed of sound: 1252 ± 2 m/s
  mass density: 875.66 ± 0.42 kg/m3
  viscosity: 0.4711 ± 0.0073 mPa·s
[4]; x2 = 0.1039
  refractive index: 1.4161 ± 0.0008
[4]; x2 = 0.305
  refractive index: 1.4142 ± 0.0008
[4]; x2 = 0.5025
  refractive index: 1.4122 ± 0.0008
[4]; x2 = 0.7336
  refractive index: 1.4088 ± 0.0008
[4]; x2 = 0.9013
  refractive index: 1.4053 ± 0.0008

## ClC(Cl)Cl [trichloromethane]
[1]; 303.15 K
  mass density: 1470.59 ± 1.4 kg/m3
  viscosity: 0.51 ± 0.0077 mPa·s
  speed of sound: 967 ± 2 m/s
[2]; 303.15 K
  refractive index: 1.441 ± 0.0007

## C1CCOC1 [tetrahydrofuran]
[1]; 303.15 K
  mass density: 876.7 ± 1.4 kg/m3
  viscosity: 0.4383 ± 0.0071 mPa·s
  speed of sound: 1255 ± 2 m/s
[2]; 303.15 K
  refractive index: 1.4028 ± 0.0007

## C1CCOC1 [tetrahydrofuran] + CCOC(C)=O
[3]; x1 = 0.0995
  speed of sound: 1129 ± 2 m/s
  mass density: 887.39 ± 0.4 kg/m3
  viscosity: 0.4078 ± 0.0068 mPa·s
[3]; x1 = 0.2035
  speed of sound: 1141 ± 2 m/s
  mass density: 886.11 ± 0.4 kg/m3
  viscosity: 0.4082 ± 0.0068 mPa·s
[3]; x1 = 0.3016
  speed of sound: 1153 ± 2 m/s
  mass density: 884.98 ± 0.41 kg/m3
  viscosity: 0.4085 ± 0.0068 mPa·s
[3]; x1 = 0.3923
  speed of sound: 1165 ± 2 m/s
  mass density: 883.95 ± 0.41 kg/m3
  viscosity: 0.4091 ± 0.0068 mPa·s
[3]; x1 = 0.4868
  speed of sound: 1177 ± 2 m/s
  mass density: 882.82 ± 0.41 kg/m3
  viscosity: 0.4111 ± 0.0068 mPa·s
[3]; x1 = 0.5955
  speed of sound: 1192 ± 2 m/s
  mass density: 881.45 ± 0.41 kg/m3
  viscosity: 0.4147 ± 0.0069 mPa·s
[3]; x1 = 0.6973
  speed of sound: 1206 ± 2 m/s
  mass density: 880.21 ± 0.41 kg/m3
  viscosity: 0.4184 ± 0.0069 mPa·s
[3]; x1 = 0.812
  speed of sound: 1224 ± 2 m/s
  mass density: 878.89 ± 0.42 kg/m3
  viscosity: 0.4236 ± 0.0069 mPa·s
[3]; x1 = 0.9
  speed of sound: 1238 ± 2 m/s
  mass density: 877.84 ± 0.42 kg/m3
  viscosity: 0.4287 ± 0.007 mPa·s
[4]; x1 = 0.0995
  refractive index: 1.3707 ± 0.0008
[4]; x1 = 0.2035
  refractive index: 1.375 ± 0.0008
[4]; x1 = 0.3016
  refractive index: 1.3785 ± 0.0008
[4]; x1 = 0.3923
  refractive index: 1.3821 ± 0.0008
[4]; x1 = 0.4868
  refractive index: 1.3858 ± 0.0008
[4]; x1 = 0.5955
  refractive index: 1.3892 ± 0.0008
[4]; x1 = 0.6973
  refractive index: 1.3921 ± 0.0008
[4]; x1 = 0.812
  refractive index: 1.3964 ± 0.0008
[4]; x1 = 0.9
  refractive index: 1.3995 ± 0.0008

## ClC(Cl)(Cl)Cl [tetrachloromethane]
[1]; 303.15 K
  mass density: 1574.82 ± 1.1 kg/m3
  viscosity: 0.8441 ± 0.011 mPa·s
  speed of sound: 905 ± 2 m/s
[2]; 303.15 K
  refractive index: 1.4555 ± 0.0007

## COC(C)=O [methyl ethanoate] + C1CCOC1
[3]; x2 = 0.1028
  speed of sound: 1151 ± 2 m/s
  mass density: 915.9 ± 0.35 kg/m3
  viscosity: 0.3512 ± 0.0064 mPa·s
[3]; x2 = 0.3022
  speed of sound: 1178 ± 2 m/s
  mass density: 906.64 ± 0.36 kg/m3
  viscosity: 0.3672 ± 0.0065 mPa·s
[3]; x2 = 0.5035
  speed of sound: 1204 ± 2 m/s
  mass density: 897.56 ± 0.38 kg/m3
  viscosity: 0.3841 ± 0.0066 mPa·s
[3]; x2 = 0.693
  speed of sound: 1226 ± 2 m/s
  mass density: 889.35 ± 0.4 kg/m3
  viscosity: 0.4035 ± 0.0068 mPa·s
[3]; x2 = 0.8918
  speed of sound: 1246 ± 2 m/s
  mass density: 881.07 ± 0.41 kg/m3
  viscosity: 0.4251 ± 0.0069 mPa·s
[4]; x2 = 0.1028
  refractive index: 1.3649 ± 0.0008
[4]; x2 = 0.3022
  refractive index: 1.3748 ± 0.0008
[4]; x2 = 0.5035
  refractive index: 1.3847 ± 0.0008
[4]; x2 = 0.693
  refractive index: 1.3927 ± 0.0008
[4]; x2 = 0.8918
  refractive index: 1.4008 ± 0.0008
